Experimental data: US10556902B2 (Asceneuron SA, priority 2016, dated 2020)

Biological target: His-Tagged hOGA (human O-GlcNAcase) (Homo sapiens (Human), UniProt O60502)
Assay: Human O-GlcNAcase enzyme inhibition assay;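 also: reactions contained 20 nM His-tagged hOGA enzyme with 10 µM FL-GlcNAc substrate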
Assay type: biochemical
Details: OGA enzyme inhibition assay; FL-GlcNAc substrate, pH 6.5; activity classes defined in μM; read-out: OGA IC50
Protocol: Then, 20 nM of His-Tagged hOGA and 10 μM of FL-GlcNAc (Fluorescein mono-beta-D-(2-deoxy-2-N-acetyl) glucopyranoside; Marker Gene Technologies Inc, M1485) were added to the 384-well plate for a final volume of 20 μl.

Sequence of His-Tagged hOGA (human O-GlcNAcase) (O60502 whole entry): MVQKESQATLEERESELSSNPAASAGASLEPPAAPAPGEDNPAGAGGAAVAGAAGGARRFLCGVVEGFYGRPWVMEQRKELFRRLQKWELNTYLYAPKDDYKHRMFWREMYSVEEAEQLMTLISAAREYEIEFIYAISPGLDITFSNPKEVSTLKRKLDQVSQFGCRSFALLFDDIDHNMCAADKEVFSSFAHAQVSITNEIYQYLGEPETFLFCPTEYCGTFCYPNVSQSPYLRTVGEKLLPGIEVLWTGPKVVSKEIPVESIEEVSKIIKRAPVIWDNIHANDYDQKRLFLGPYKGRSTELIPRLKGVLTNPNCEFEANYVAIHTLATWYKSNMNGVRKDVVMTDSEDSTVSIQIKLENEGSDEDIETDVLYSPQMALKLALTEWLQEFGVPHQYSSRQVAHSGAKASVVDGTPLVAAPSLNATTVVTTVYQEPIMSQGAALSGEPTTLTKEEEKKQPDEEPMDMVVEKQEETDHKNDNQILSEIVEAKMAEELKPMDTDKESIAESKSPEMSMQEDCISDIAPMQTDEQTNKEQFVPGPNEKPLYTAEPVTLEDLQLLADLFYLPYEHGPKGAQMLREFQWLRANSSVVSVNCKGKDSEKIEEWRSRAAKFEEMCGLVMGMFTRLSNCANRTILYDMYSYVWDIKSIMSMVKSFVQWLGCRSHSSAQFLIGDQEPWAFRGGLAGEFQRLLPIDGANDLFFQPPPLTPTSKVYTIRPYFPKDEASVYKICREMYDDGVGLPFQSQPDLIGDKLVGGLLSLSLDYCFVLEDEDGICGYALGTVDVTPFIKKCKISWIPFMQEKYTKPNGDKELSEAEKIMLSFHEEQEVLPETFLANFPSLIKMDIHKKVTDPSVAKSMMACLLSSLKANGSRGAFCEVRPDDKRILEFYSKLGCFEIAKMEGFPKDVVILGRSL

IC50 [µM]	Compound
0.05 to 0.2	CC(c1ccc2nccnc2c1)N1CCN(c2ccc(C(O)C(F)(F)F)cn2)CC1 (racemic) [Example 56, 2,2,2-trifluoro-1-(6-(4-(1-(quinoxalin-6-yl)ethyl)piperazin-1-yl)pyridin-3-yl)ethan-1-ol]
0.2 to 1	CC(c1ccc2nccnc2c1)N1CCN(c2ccc(C3(O)CCCCC3)cn2)CC1 (racemic) [Example 60, 1-(6-(4-(1-(quinoxalin-6-yl)ethyl)piperazin-1-yl)pyridin-3-yl)cyclohexan-1-ol]
0.05 to 0.2	CC(c1ccc2nccnc2c1)N1CCN(c2ccc(C3(O)CCCC3)cn2)CC1 (racemic) [Example 61, 1-(6-(4-(1-(quinoxalin-6-yl)ethyl)piperazin-1-yl)pyridin-3-yl)cyclopentan-1-ol]
< 0.05	COC(=O)c1ccc(N2CCN(C(C)c3ccc4c(c3)OCC4)CC2)nc1 (racemic) [Example 62, Methyl 6-(4-(1-(2,3-dihydrobenzofuran-6-yl)ethyl)piperazin-1-yl)nicotinate]
< 0.05	CC(c1ccc2c(c1)OCC2)N1CCN(c2ccc(C(=O)N(C)C)cn2)CC1 (racemic) [Example 63, 6-(4-(1-(2,3-dihydrobenzofuran-6-yl)ethyl)piperazin-1-yl)-N,N-dimethylnicotinamide]
< 0.05	CNC(=O)c1ccc(N2CCN(C(C)c3ccc4c(c3)OCC4)CC2)nc1 (racemic) [Example 64, 6-(4-(1-(2,3-dihydrobenzofuran-6-yl)ethyl)piperazin-1-yl)-N-methylnicotinamide]
< 0.05	CC(c1ccc2c(c1)OCC2)N1CCN(c2ccc(C(=O)O)cn2)CC1 (racemic) [Example 65, 6-(4-(1-(2,3-Dihydrobenzofuran-6-yl)ethyl)piperazin-1-yl)nicotinic acid]
0.2 to 1	COC(=O)c1cccc(N2CCN(C(C)c3ccc4nccnc4c3)CC2)n1 (racemic) [Example 70, Methyl 6-(4-(1-(quinoxalin-6-yl)ethyl)piperazin-1-yl)picolinate]
< 0.05	CC(c1ccc2c(c1)OCC2)N1CCN(c2ccc(S(C)(=O)=O)cn2)CC1 (racemic) [Example 71]
0.05 to 0.2	CC(c1ccc2nccnc2c1)N1CCN(c2ccc(S(C)(=O)=O)cn2)CC1 (racemic) [Example 72, 6-(1-(4-(5-(methylsulfonyl)pyridin-2-yl)piperazin-1-yl)ethyl)quinoxaline]

Compound	IC50 [µM]
CC(c1ccc2nccnc2c1)N1CCN(c2ccc(C3(O)CCOCC3)cn2)CC1 (racemic) [Example 57, 4-(6-(4-(1-(quinoxalin-6-yl)ethyl)piperazin-1-yl)pyridin-3-yl)tetrahydro-2H-pyran-4-ol]	0.05 to 0.2
CC(c1ccc2nccnc2c1)N1CCN(c2ccc(C3(O)CCOC3)cn2)CC1 (racemic) [Example 58, 3-(6-(4-(1-(quinoxalin-6-yl)ethyl)piperazin-1-yl)pyridin-3-yl)tetrahydrofuran-3-ol]	0.05 to 0.2
CC(c1ccc2nccnc2c1)N1CCN(c2ccc(C3(O)COC3)cn2)CC1 (racemic) [Example 59, 3-(6-(4-(1-(quinoxalin-6-yl)ethyl)piperazin-1-yl)pyridin-3-yl)oxetan-3-ol]	0.05 to 0.2
COC(=O)c1ccc(N2CCN(C(C)c3ccc4nccnc4c3)CC2)nc1 (racemic) [Example 66, Methyl-6-(4-(1-(quinoxalin-6-yl)ethyl)piperazin-1-yl) nicotinate]	0.05 to 0.2
CC(c1ccc2nccnc2c1)N1CCN(c2ccc(C(=O)O)cn2)CC1 (racemic) [Example 67, 6-(4-(1-(quinoxalin-6-yl)ethyl)piperazin-1-yl) nicotinic acid]	0.05 to 0.2
CNC(=O)c1cccc(N2CCN(C(C)c3ccc4nccnc4c3)CC2)n1 (racemic) [Example 68, N-methyl-6-(4-(1-(quinoxalin-6-yl)ethyl)piperazin-1-yl) picolinamide]	0.05 to 0.2
CC(c1ccc2nccnc2c1)N1CCN(c2cccc(C(=O)N(C)C)n2)CC1 (racemic) [Example 69, N, N-dimethyl-6-(4-(1-(quinoxalin-6-yl)ethyl)piperazin-1-yl) picolinamide]	0.2 to 1
